Measured values reported in patent US9376442B2, “Methylpyrrolopyrimidinecarboxamides” (Takeda GmbH, priority 2009, dated 2016).

Assays:
[1] = target: T1, PDE4B1 (Homo sapiens, UniProt Q07343); assay: Inhibition of type 4 phosphodiesterase (PDE4) activity, modified SPA test with recombinant PDE4B1 expressed in SF21 insect cells; format: biochemical; details: recombinant PDE4B1, 0.5 μM cAMP, read-out: PDE4B1 inhibitory values [measured as −log IC50 (mol/l)] (converted)
T1 construct: made in house; host or cells: SF21 insect cells (baculovirus; pCRBac vector), 1000 x g supernatant of homogenate
Procedure: Method for Measuring Inhibition of the Type 4 Phosphodiesterase (PDE4) Activity:
The PDE4B1 (GB no. L20966) was a gift of Prof. M. Conti (Stanford University, USA). It was amplified from the original plasmid (pCMV5) via PCR with primers Rb18 (5′-[…]-3′) and Rb10 (5′-[…]-3′) and cloned into the pCRBac vector (Invitrogen, Groningen, NL).
The recombinant baculovirus was prepared by means of homologous recombination in SF9 insect cells. The expression plasmids were cotransfected with Baculo-Gold DNA (Pharmingen, Hamburg) using a standard protocol (Pharmingen, Hamburg). Wt virus-free recombinant virus supernatants were selected using plaque assay methods. After that, high-titre virus supernatants were prepared by amplifying 3 times. PDE4B1 was expressed in SF21 cells by infecting 2×10^6 cells/ml with an MOI (multiplicity of infection) between 1 and 10 in the serum-free medium Insect Express Sf9-S2 (PAA, Pasching, Austria). The cells were cultured at 28° C. for 48-72 hours, after which they were pelleted for 5-10 min at 1000×g and 4° C.
The SF21 insect cells were resuspended, at a concentration of approx. 10^7 cells/ml, in ice-cold (4° C.) homogenization buffer (20 mM Tris, pH 8.2, containing the following additions: 140 mM NaCl, 3.8 mM KCl, 1 mM EGTA, 1 mM MgCl2, 10 mM (3-mercaptoethanol, 2 mM benzamidine, 0.4 mM Pefablock, 10 μM leupeptin, 10 μM pepstatin A, 5 μM trypsin inhibitor) and disrupted by ultrasonication. The homogenate was then centrifuged for 10 min at 1000×g and the supernatant was stored at −80° C. until subsequent use (see below). The protein content was determined by the Bradford method (BioRad, Munich) using BSA as the standard.
PDE4B1 activity was inhibited by the compounds according to the present subject matter in a modified SPA (scintillation proximity assay) test, supplied by Amersham Biosciences (see procedural instructions “phosphodiesterase [3H]cAMP SPA enzyme assay, code TRKQ 7090”), carried out in 96-well microtitre plates (MTP's). The test volume is 100 μl and contains 20 mM Tris buffer (pH 7.4), 0.1 mg/ml of BSA, 5 mM Mg^2+, 0.5 μM cAMP (including about 50,000 cpm of [3H]cAMP), 1 μl of the respective substance dilution in DMSO and sufficient recombinant PDE (1000×g supernatant, see above) to ensure that 10-20% of the cAMP is converted under the said experimental conditions. […] After a preincubation of 5 min at 37° C., the reaction is started by adding the substrate (cAMP) and the assays are incubated for a further 15 min; after that, they are stopped by adding SPA beads (50 μl). In accordance with the manufacturer's instructions, the SPA beads had previously been resuspended in water, but were then diluted 1:3 (v/v) in water; the diluted solution also contains 3 mM IBMX to ensure a complete PDE activity stop. After the beads have been sedimented (>30 min), the MTP's are analyzed in commercially available luminescence detection devices. The corresponding IC50 values of the compounds for the inhibition of PDE4B1 activity are determined from the concentration-effect curves by means of non-linear regression.

[2] = target: T2, PDE5A1 (Homo sapiens, UniProt O76074); assay: Inhibition of type 5 phosphodiesterase (PDE5) activity, modified SPA test with human platelet lysate; format: biochemical; details: 0.5 μM cGMP, read-out: PDE5A1 inhibitory values [measured as −log IC50 (mol/l)] (converted)
T2 construct: from tissue; host or cells: human platelets from fresh donor blood (10,000 x g supernatant of sonicated lysate)
Summary of the method: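 Enzyme source is lysate from human platelets (10,000 g supernatant). Compound preincubated 5 min at 37° C in Tris pH 7.4 containing 1 μM motapizone and 10 nM of a PDE2 inhibitor. Reaction started with 0.5 μM cGMP ([3H] tracer) and run 15 min; SPA read-out, IC50 by non-linear regression.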

T1 sequence (Q07343 whole entry): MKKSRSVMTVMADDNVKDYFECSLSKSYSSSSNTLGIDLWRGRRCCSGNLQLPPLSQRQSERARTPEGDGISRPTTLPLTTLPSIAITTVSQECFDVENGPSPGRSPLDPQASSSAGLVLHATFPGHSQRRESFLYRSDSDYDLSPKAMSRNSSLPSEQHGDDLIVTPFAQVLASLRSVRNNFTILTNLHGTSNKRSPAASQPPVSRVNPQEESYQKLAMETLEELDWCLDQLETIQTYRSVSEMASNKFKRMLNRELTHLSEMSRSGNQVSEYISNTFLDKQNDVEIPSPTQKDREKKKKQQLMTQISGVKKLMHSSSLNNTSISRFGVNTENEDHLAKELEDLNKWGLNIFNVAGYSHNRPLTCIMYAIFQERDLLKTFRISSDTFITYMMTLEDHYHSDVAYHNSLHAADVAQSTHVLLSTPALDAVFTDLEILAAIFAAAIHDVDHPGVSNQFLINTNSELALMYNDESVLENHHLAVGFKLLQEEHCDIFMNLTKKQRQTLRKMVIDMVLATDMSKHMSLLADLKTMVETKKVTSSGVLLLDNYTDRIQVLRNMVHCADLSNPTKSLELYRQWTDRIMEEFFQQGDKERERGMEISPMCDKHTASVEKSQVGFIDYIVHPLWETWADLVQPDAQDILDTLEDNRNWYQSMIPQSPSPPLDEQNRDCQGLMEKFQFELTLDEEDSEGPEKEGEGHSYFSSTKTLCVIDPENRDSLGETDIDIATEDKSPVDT

Row | Compound | IC50 [1] [nM] | IC50 [2] [nM]
1 | CCc1ccc(OCC2CC2)c(-c2ncnc3c(C(=O)N[C@@H]4CN(C(C)=O)C[C@H]4O)c(C)[nH]c23)c1 (relative stereo) [Example E154, N-[(3R*,4R*)-1-Acetyl-4-hydroxypyrrolidin-3-yl]-4-[2-(cyclopropylmethoxy)-5-ethylphenyl]-6-methyl-5H-pyrrolo[3,2-d]pyrimidine-7-carboxamide] | 100 to 1000 | 1 to 10
2 | CCC(=O)N1C[C@@H](O)[C@H](NC(=O)c2c(C)[nH]c3c(-c4cc(CC)ccc4OCC4CC4)ncnc23)C1 (relative stereo) [Example E155, 4-[2-(Cyclopropylmethoxy)-5-ethylphenyl]-N-[(3R*,4R*)-4-hydroxy-1-propanoylpyrrolidin-3-yl]-6-methyl-5H-pyrrolo[3,2-d]pyrimidine-7-carboxamide] | 100 to 1000 | < 1
3 | CCc1ccc(OCC2CC2)c(-c2ncnc3c(C(=O)N[C@@H]4CN(C(=O)COC)C[C@H]4O)c(C)[nH]c23)c1 (relative stereo) [Example E156, 4-[2-(Cyclopropylmethoxy)-5-ethylphenyl]-N-[(3R*,4R*)-4-hydroxy-1-(methoxyacetyl)pyrrolidin-3-yl]-6-methyl-5H-pyrrolo[3,2-d]pyrimidine-7-carboxamide] | 100 to 1000 | 1 to 10
4 | CCc1ccc(OCC2CC2)c(-c2ncnc3c(C(=O)N[C@@H]4CN(C(=O)CO)C[C@H]4O)c(C)[nH]c23)c1 (relative stereo) [Example F97, 4-[2-(Cyclopropylmethoxy)-5-ethylphenyl]-N-[(3R*,4R*)-4-hydroxy-1-(hydroxyacetyl)pyrrolidin-3-yl]-6-methyl-5H-pyrrolo[3,2-d]pyrimidine-7-carboxamide] | 100 to 1000 | 1 to 10
5 | CC(=O)N[C@H]1C[C@@H](F)[C@H](NC(=O)c2c(C)[nH]c3c(-c4cc(C(F)F)ccc4OCC4CC4)ncnc23)C1 (relative stereo) [Example P99, N-[(1R*,2R*,4R*)-4-(Acetylamino)-2-fluorocyclopentyl]-4-[2-(cyclopropylmethoxy)-5-(difluoromethyl)phenyl]-6-methyl-5H-pyrrolo[3,2-d]pyrimidine-7-carboxamide] | < 100 | –
6 | CCC(=O)N[C@H]1C[C@@H](F)[C@H](NC(=O)c2c(C)[nH]c3c(-c4cc(C(F)F)ccc4OCC4CC4)ncnc23)C1 (relative stereo) [Example P100, 4-[2-(Cyclopropylmethoxy)-5-(difluoromethyl)phenyl]-N-[(1R*,2R*,4R*)-2-fluoro-4-(propanoylamino)cyclopentyl]-6-methyl-5H-pyrrolo[3,2-d]pyrimidine-7-carboxamide] | < 100 | –
7 | COCC(=O)N[C@H]1C[C@@H](F)[C@H](NC(=O)c2c(C)[nH]c3c(-c4cc(C(F)F)ccc4OCC4CC4)ncnc23)C1 (relative stereo) [Example P101, 4-[2-(Cyclopropylmethoxy)-5-(difluoromethyl)phenyl]-N-{(1R*,2R*,4R*)-2-fluoro-4-[(methoxyacetyl)amino]cyclopentyl}-6-methyl-5H-pyrrolo[3,2-d]pyrimidine-7-carboxamide] | < 100 | –
8 | CC(=O)N[C@H]1CC[C@H](NC(=O)c2c(C)[nH]c3c(-c4cc(C(F)F)ccc4OCC4CC4)ncnc23)[C@@H](C)C1 (relative stereo) [Example P139, N-[(1S*,2S*,4S*)-4-(Acetylamino)-2-methylcyclohexyl]-4-[2-(cyclopropylmethoxy)-5-(difluoromethyl)phenyl]-6-methyl-5H-pyrrolo[3,2-d]pyrimidine-7-carboxamide] | < 100 | < 1
9 | CCC(=O)N[C@H]1CC[C@H](NC(=O)c2c(C)[nH]c3c(-c4cc(C(F)F)ccc4OCC4CC4)ncnc23)[C@@H](C)C1 (relative stereo) [Example P140, 4-[2-(Cyclopropylmethoxy)-5-(difluoromethyl)phenyl]-6-methyl-N-[(1S*,2S*,4S*)-2-methyl-4-(propanoylamino)cyclohexyl]-5H-pyrrolo[3,2-d]pyrimidine-7-carboxamide] | < 100 | < 1
10 | Cc1ccc(OCC2CC2)c(-c2nc(C)nc3c(C(=O)NC4CCN(C(=O)[C@H](C)O)CC4)c(C)[nH]c23)c1 [Example F107, 4-[2-(Cyclopropylmethoxy)-5-methylphenyl]-N-{1-[(2S)-2-hydroxypropanoyl]piperidin-4-yl}-2,6-dimethyl-5H-pyrrolo[3,2-d]pyrimidine-7-carboxamide] | – | < 1
11 | COc1cc(OCC2CC2)c(-c2nc(C)nc3c(C(=O)NC4CCN(C(=O)[C@H](C)O)CC4)c(C)[nH]c23)cc1F [Example F108, 4-[2-(Cyclopropylmethoxy)-5-fluoro-4-methoxyphenyl]-N-{1-[(2S)-2-hydroxypropanoyl]piperidin-4-yl}-2,6-dimethyl-5H-pyrrolo[3,2-d]pyrimidine-7-carboxamide] | – | < 1
12 | COc1cc(-c2nc(C)nc3c(C(=O)NC4CCN(C(=O)CO)CC4)c(C)[nH]c23)c(OCC2CC2)cc1F [Example F109, 4-[2-(Cyclopropylmethoxy)-4-fluoro-5-methoxyphenyl]-N-[1-(hydroxyacetyl)piperidin-4-yl]-2,6-dimethyl-5H-pyrrolo[3,2-d]pyrimidine-7-carboxamide] | – | < 1
13 | COc1cc(-c2nc(C)nc3c(C(=O)NC4CCN(C(=O)[C@H](C)O)CC4)c(C)[nH]c23)c(OCC2CC2)cc1F [Example F110, 4-[2-(Cyclopropylmethoxy)-4-fluoro-5-methoxyphenyl]-N-{1-[(2S)-2-hydroxypropanoyl]piperidin-4-yl}-2,6-dimethyl-5H-pyrrolo[3,2-d]pyrimidine-7-carboxamide] | – | < 1
14 | COc1cc(-c2ncnc3c(C(=O)N[C@@H]4CCN(C(=O)CO)C4)c(C)[nH]c23)c(OCC2CC2)cc1F [Example F111, 4-[2-(Cyclopropylmethoxy)-4-fluoro-5-methoxyphenyl]-N-[(3R)-1-glycoloylpyrrolidin-3-yl]-6-methyl-5H-pyrrolo[3,2-d]pyrimidine-7-carboxamide] | – | < 1
15 | COc1cc(-c2ncnc3c(C(=O)N[C@@H]4CCN(C(=O)[C@H](C)O)C4)c(C)[nH]c23)c(OCC2CC2)cc1F [Example F112, 4-[2-(Cyclopropylmethoxy)-4-fluoro-5-methoxyphenyl]-N-{(3R)-1-[(2S)-2-hydroxypropanoyl]pyrrolidin-3-yl}-6-methyl-5H-pyrrolo[3,2-d]pyrimidine-7-carboxamide] | – | < 1
16 | COc1cc(OCC2CC2)c(-c2ncnc3c(C(=O)N[C@@H]4CCN(C(=O)CO)C4)c(C)[nH]c23)cc1F [Example F115, 4-[2-(Cyclopropylmethoxy)-5-fluoro-4-methoxyphenyl]-N-[(3R)-1-glycoloylpyrrolidin-3-yl]-6-methyl-5H-pyrrolo[3,2-d]pyrimidine-7-carboxamide] | – | < 1
17 | COc1cc(OCC2CC2)c(-c2ncnc3c(C(=O)N[C@@H]4CCN(C(=O)[C@H](C)O)C4)c(C)[nH]c23)cc1F [Example F116, 4-[2-(Cyclopropylmethoxy)-5-fluoro-4-methoxyphenyl]-N-{(3R)-1-[(2S)-2-hydroxypropanoyl]pyrrolidin-3-yl}-6-methyl-5H-pyrrolo[3,2-d]pyrimidine-7-carboxamide] | – | < 1
